Where a SMILES comes first, the peptide text is derived from it. Bridges are numbered along the chain shown (N, C = ends). [ ]: non-standard residue; d: D form. NMeL = CN[C@@H](CC(C)C)C(=O)O; αMeL = CC(C)C[C@](C)(N)C(=O)O
What was measured:
Nav1.2 (rBIIa) = format: cell-based, rat
human Nav1.7 = human Nav1.7 (Homo sapiens, UniProt Q15858); experiment: cell-based; format: cell-based
Chain of human Nav1.7 (Q15858 other isoform, or with tags, fused parts or gaps): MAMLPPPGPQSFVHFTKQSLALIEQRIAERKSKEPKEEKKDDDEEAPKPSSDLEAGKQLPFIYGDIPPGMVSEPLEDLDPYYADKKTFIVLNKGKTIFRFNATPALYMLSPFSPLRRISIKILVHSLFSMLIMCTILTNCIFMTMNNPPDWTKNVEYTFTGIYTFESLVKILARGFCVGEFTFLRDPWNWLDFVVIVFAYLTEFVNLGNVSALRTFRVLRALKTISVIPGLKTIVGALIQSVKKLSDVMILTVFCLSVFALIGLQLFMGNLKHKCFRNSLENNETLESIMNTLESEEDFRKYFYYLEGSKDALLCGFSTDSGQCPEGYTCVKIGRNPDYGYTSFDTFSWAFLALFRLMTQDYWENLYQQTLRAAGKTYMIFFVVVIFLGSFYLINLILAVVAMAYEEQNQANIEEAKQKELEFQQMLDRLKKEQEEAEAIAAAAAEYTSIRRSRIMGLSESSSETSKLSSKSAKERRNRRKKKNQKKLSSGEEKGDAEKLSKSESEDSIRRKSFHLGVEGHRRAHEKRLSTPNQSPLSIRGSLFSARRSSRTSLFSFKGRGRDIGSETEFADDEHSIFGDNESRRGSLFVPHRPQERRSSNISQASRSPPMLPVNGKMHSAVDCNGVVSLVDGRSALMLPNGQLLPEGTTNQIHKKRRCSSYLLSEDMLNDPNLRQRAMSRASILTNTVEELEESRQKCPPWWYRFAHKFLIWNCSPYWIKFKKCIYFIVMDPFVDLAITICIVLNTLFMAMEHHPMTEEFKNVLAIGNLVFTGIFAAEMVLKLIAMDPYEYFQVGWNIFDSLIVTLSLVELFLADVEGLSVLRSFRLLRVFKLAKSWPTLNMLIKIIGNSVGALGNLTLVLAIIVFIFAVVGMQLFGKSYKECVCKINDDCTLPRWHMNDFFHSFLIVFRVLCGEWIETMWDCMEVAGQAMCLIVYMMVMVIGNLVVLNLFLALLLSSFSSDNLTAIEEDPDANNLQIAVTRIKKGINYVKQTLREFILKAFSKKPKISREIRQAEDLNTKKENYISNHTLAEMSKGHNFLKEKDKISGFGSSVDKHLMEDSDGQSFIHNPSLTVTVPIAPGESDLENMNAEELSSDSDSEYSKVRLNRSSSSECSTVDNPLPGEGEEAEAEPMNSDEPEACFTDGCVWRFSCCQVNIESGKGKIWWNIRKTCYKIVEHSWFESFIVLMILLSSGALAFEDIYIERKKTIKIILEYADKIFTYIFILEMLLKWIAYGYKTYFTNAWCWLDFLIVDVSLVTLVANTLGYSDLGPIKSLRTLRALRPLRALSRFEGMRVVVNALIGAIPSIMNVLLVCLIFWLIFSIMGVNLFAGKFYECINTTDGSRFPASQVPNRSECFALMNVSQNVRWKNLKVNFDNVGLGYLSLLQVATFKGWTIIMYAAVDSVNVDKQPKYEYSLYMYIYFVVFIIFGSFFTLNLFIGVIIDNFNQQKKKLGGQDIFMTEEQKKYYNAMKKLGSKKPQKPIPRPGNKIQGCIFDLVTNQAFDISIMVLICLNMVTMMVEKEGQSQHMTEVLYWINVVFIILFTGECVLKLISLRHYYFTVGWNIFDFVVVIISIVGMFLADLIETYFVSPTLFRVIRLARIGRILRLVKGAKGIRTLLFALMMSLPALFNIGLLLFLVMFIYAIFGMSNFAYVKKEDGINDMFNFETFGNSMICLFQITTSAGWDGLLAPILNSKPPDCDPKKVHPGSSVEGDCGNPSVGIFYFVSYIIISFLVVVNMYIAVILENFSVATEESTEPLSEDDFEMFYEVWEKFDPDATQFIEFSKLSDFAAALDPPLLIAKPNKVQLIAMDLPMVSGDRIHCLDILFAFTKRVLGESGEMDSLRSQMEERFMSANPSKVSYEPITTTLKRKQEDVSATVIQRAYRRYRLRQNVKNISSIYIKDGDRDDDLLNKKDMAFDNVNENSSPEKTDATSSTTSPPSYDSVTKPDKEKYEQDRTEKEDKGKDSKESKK

CC[C@H](C)[C@H](NC(=O)[C@](C)(CC(C)C)NC(=O)[C@H](CCCCN)NC(=O)[C@H](CCCCN)NC(=O)[C@H](CCCCN)NC(=O)[C@@H]1CSSC[C@@H]2NC(=O)[C@H](CCCCN)NC(=O)[C@H](CCCNC(=N)N)NC(=O)[C@H](C)NC(=O)[C@H](CO)NC(=O)[C@H](CC(=O)O)NC(=O)[C@@H]3CSSC[C@H](NC(=O)[C@H](C(C)C)NC(=O)[C@H](CC(C)C)NC(=O)CNC(=O)[C@H](CCC(=O)O)NC(=O)[C@H](CSSC[C@H](NC(=O)[C@@H](N)Cc4ccc(O)cc4)C(=O)N[C@@H](CCC(N)=O)C(=O)N[C@@H](CCCCN)C(=O)N[C@@H](Cc4c[nH]c5ccccc45)C(=O)N[C@@H](CCSC)C(=O)N[C@@H](Cc4c[nH]c5ccccc45)C(=O)N[C@@H]([C@@H](C)O)C(=O)N3)NC2=O)C(=O)N[C@@H](CCCNC(=N)N)C(=O)N[C@@H](CC(C)C)C(=O)N[C@@H](Cc2c[nH]c3ccccc23)C(=O)N1)C(=O)O [compound 11] (H-YCQKWMWTCDSARKCCEGLVCRLWCKKK[αMeL]I-OH; disulfide 2-16, 9-21, 15-25)
IC50 (Nav1.2 (rBIIa)): 0.342 ± 0.073 µM | IC50 (human Nav1.7): 0.01 ± 0.001 µM

CC[C@H](C)[C@H](NC(=O)[C@H](CC(C)C)N(C)C(=O)[C@H](CCCCN)NC(=O)[C@H](CCCCN)NC(=O)[C@H](CCCCN)NC(=O)[C@@H]1CSSC[C@@H]2NC(=O)[C@H](CCCCN)NC(=O)[C@H](CCCNC(=N)N)NC(=O)[C@H](C)NC(=O)[C@H](CO)NC(=O)[C@H](CC(=O)O)NC(=O)[C@@H]3CSSC[C@H](NC(=O)[C@H](C(C)C)NC(=O)[C@H](CC(C)C)NC(=O)CNC(=O)[C@H](CCC(=O)O)NC(=O)[C@H](CSSC[C@H](NC(=O)[C@@H](N)Cc4ccc(O)cc4)C(=O)N[C@@H](CCC(N)=O)C(=O)N[C@@H](CCCCN)C(=O)N[C@@H](Cc4c[nH]c5ccccc45)C(=O)N[C@@H](CCSC)C(=O)N[C@@H](Cc4c[nH]c5ccccc45)C(=O)N[C@@H]([C@@H](C)O)C(=O)N3)NC2=O)C(=O)N[C@@H](CCCNC(=N)N)C(=O)N[C@@H](CC(C)C)C(=O)N[C@@H](Cc2c[nH]c3ccccc23)C(=O)N1)C(=O)O [compound 12] (H-YCQKWMWTCDSARKCCEGLVCRLWCKKK[NMeL]I-OH; disulfide 2-16, 9-21, 15-25)
IC50 (Nav1.2 (rBIIa)): 0.138 ± 0.04 µM | IC50 (human Nav1.7): 0.528 ± 0.1 µM

CC[C@H](C)[C@H](NC(=O)[C@H](CCCCN)NC(=O)[C@H](CCCCN)NC(=O)[C@@H]1CSSC[C@@H]2NC(=O)[C@H](CCCCN)NC(=O)[C@H](CCCNC(=N)N)NC(=O)[C@H](C)NC(=O)[C@H](CO)NC(=O)[C@H](CC(=O)O)NC(=O)[C@@H]3CSSC[C@H](NC(=O)[C@H](C(C)C)NC(=O)[C@H](CC(C)C)NC(=O)CNC(=O)[C@H](CCC(=O)O)NC(=O)[C@H](CSSC[C@H](NC(=O)[C@@H](N)Cc4ccc(O)cc4)C(=O)N[C@@H](CCC(N)=O)C(=O)N[C@@H](CCCCN)C(=O)N[C@@H](Cc4c[nH]c5ccccc45)C(=O)N[C@@H](CCSC)C(=O)N[C@@H](Cc4c[nH]c5ccccc45)C(=O)N[C@@H]([C@@H](C)O)C(=O)N3)NC2=O)C(=O)N[C@@H](CCCNC(=N)N)C(=O)N[C@@H](CC(C)C)C(=O)N[C@@H](Cc2c[nH]c3ccccc23)C(=O)N1)C(=O)N[C@@H](CC(C)C)C(=O)N[C@@H](Cc1c[nH]c2ccccc12)C(=O)O [compound 13] (H-YCQKWMWTCDSARKCCEGLVCRLWCKKILW-OH; disulfide 2-16, 9-21, 15-25)
IC50 (Nav1.2 (rBIIa)): 0.05 ± 0.01 µM | IC50 (human Nav1.7): 0.003 µM

CC[C@H](C)[C@H](NC(=O)[C@H](CCCCN)NC(=O)[C@H](CCCCN)NC(=O)[C@@H]1CSSC[C@@H]2NC(=O)[C@H](CCCCN)NC(=O)[C@H](CCCNC(=N)N)NC(=O)[C@H](C)NC(=O)[C@H](CO)NC(=O)[C@H](CC(=O)O)NC(=O)[C@@H]3CSSC[C@H](NC(=O)[C@H](C(C)C)NC(=O)[C@H](CC(C)C)NC(=O)CNC(=O)[C@H](CCC(=O)O)NC(=O)[C@H](CSSC[C@H](NC(=O)[C@@H](N)Cc4ccc(O)cc4)C(=O)N[C@@H](CCC(N)=O)C(=O)N[C@@H](CCCCN)C(=O)N[C@@H](Cc4c[nH]c5ccccc45)C(=O)N[C@@H](CCSC)C(=O)N[C@@H](Cc4c[nH]c5ccccc45)C(=O)N[C@@H]([C@@H](C)O)C(=O)N3)NC2=O)C(=O)N[C@@H](CCCNC(=N)N)C(=O)N[C@@H](CC(C)C)C(=O)N[C@@H](Cc2c[nH]c3ccccc23)C(=O)N1)C(=O)N[C@H](C(=O)N[C@@H](Cc1c[nH]c2ccccc12)C(=O)O)[C@@H](C)CC [compound 14] (H-YCQKWMWTCDSARKCCEGLVCRLWCKKIIW-OH; disulfide 2-16, 9-21, 15-25)
IC50 (Nav1.2 (rBIIa)): 0.045 µM | IC50 (human Nav1.7): 0.005 ± 0.001 µM
